# Experiments:
# [1] = tested on: E. coli (Stratagene, BLR); experiment: P18 in pharmaceutical base formulation (CFU); format: cell-based, Escherichia coli; conditions: mixed 1:9 with suspension
# Procedure: The aim of the experiment was to study the effect of a pharmaceutical base formulation containing the P18 peptide ingredient (P18 sequence H-KWKLFKKIPKFLHLAKKF-NH2 (Bachem AG, Switzerland)). For this purpose, the following base formulation was used: […]
# 1% hydroxycellulose 10% propylene glycol made up with water.
# Based on the base formulation, formulations with rising P18 concentrations (500 ppm to 10 000 ppm) were prepared from a 20% concentrate solution.
# The effect of the formulations on E. coli (Stratagene, BLR) was studied.
# LB growth medium (Becton, Dickinson and Company, Sparks, USA) […] make up to 1 liter, set pH 7
# The growth test was effected as follows: 5 ml of LB medium were inoculated with E. coli and incubated at 37° C. and 200 rpm overnight.
# 1.5 ml reaction vessels were each filled with 1 ml of LB medium and inoculated with the E. coli suspension from the overnight culture such that an optical density, measured at 600 nm, of 0.1 was obtained at the start of the experiment. The resulting E. coli suspension was mixed in a ratio of 1:9 (formulation: E. coli suspension) with the formulations. 1 μl of the culture was diluted with 20 μl of LB medium after 5 minutes, 10 minutes, 20 minutes and 60 minutes, and then plated out. After incubation over 24 hours, the colonies on the plates were counted.
# [2] = tested on: M. furfur DSM 6170; experiment: Comparison of the efficacy of P18 and AFPP (CFU); format: cell-based, Malassezia furfur
# Text: WO 00/32220 describes the effect of the antifungal polypeptide AFPP from Aspergillus giganteus on the growth of Malassezia furfur.
# In order to compare the effect of P18 (SEQ ID NO. 3; sequence: KWKLFKKIPKFLHLAKKF-NH2 (Bachem. AG, Switzerland)) with the effect of AFPP, AFPP was provided from the culture supernatant of the A. giganteus strain CBS 526.65 (Organobalance, Berlin). The purification was effected according to Theis et al. (Theis T., Wedde M., Meyer V., Stahl U. (2003) The antifungal protein from Aspergillus giganteus causes membrane permeabilization. Antimicrob. Agents Chemother. 47:588-593; Theis T., Marx F., Salvenmoser W., Stahl U., Meyer V. (2005) New insights into the target site and mode of action of the antifungal protein (AFP) of Aspergillus giganteus. Res Microbiol. 156:47-56.)
# After replacing the buffer and concentration, a 2% (w/w) AFPP solution in phosphate buffer (10 mM sodium phosphate, pH 7.5, 100 mM NaCl) was obtained.
# The P18 concentrate was also present as a 2% (w/w) solution in phosphate buffer.
# Growth medium: M472 Pityrosporum medium according to DSMZ (German Collection of Microorganisms and Cell Cultures, Braunschweig, Germany) 40 g of malt extract (Becton, Dickinson and Company, Sparks, USA) 20 g of ox bile (Merck, Darmstadt, Germany)
# The growth test was effected as follows: a shake culture containing M472 Pityrosporum medium was inoculated with M. furfur DSM 6170 (DSMZ) and incubated with shaking at 30° C. and 200 rpm overnight.
# For each test mixture, a 1.5 ml reaction vessel was filled with Pityrosporum medium and inoculated with the M. furfur overnight culture to give a start OD of 0.1, measured at 600 nm.
# The growth of the following test mixtures was monitored: • M. furfur suspension and addition of 30 μl of phosphate buffer (in order to rule out any influence of the phosphate buffer on the effect of the active peptides at a final concentration of 0.1%) • M. furfur suspension and addition of 60 μl of phosphate buffer (in order to rule out any influence of the phosphate buffer on the effect of the active peptides at a final concentration of 0.2%) • M. furfur suspension and addition of 90 μl of phosphate buffer (in order to rule out any influence of the phosphate buffer on the effect of the active peptides at a final concentration of 0.3%) • M. furfur suspension with a final P18 concentration of 0.1% in the reaction volume • M. furfur suspension with a final P18 concentration of 0.2% in the reaction volume • M. furfur suspension with a final P18 concentration of 0.3% in the reaction volume • M. furfur suspension with a final AFPP concentration of 0.1% in the reaction volume • M. furfur suspension with a final AFPP concentration of 0.2% in the reaction volume • M. furfur suspension with a final AFPP concentration of 0.3% in the reaction volume
# The reaction volume was 600 μl in each case. The growth of M. furfur in the test mixtures was observed over a period of 24 hours. For this purpose, the mixtures were diluted 1:10 in M472 medium after 5 minutes, 20 minutes and 24 hours, and then 10 μl were plated out. The CFU (colony forming units) were determined by counting after incubation at 30° C. for 6 days.
# The experiments were effected in double determination and were independently repeated at least once.
substance,measurement,setting,value
"H-KWKLFKKIPKFLHLAKKF-NH2 [P18, H-KWKLFKKIPKFLHLAKKF-NH2]",Colony forming units after the incubation time specified,"[1]; 10 000 ppm in the formulation, 5 minutes",1778 ± 314 CFU
same,Colony forming units after the incubation time specified,"[1]; 10 000 ppm in the formulation, 10 minutes",901 ± 120 CFU
same,Colony forming units after the incubation time specified,"[1]; 10 000 ppm in the formulation, 20 minutes",226 ± 286 CFU
same,Colony forming units after the incubation time specified,"[1]; 10 000 ppm in the formulation, 60 minutes",7.75 ± 9.5 CFU
same,Colony forming units after the incubation time specified,"[1]; 500 ppm in the formulation, 5 minutes",2000 ± 0 CFU
same,Colony forming units after the incubation time specified,"[1]; 500 ppm in the formulation, 10 minutes",2000 ± 0 CFU
same,Colony forming units after the incubation time specified,"[1]; 500 ppm in the formulation, 20 minutes",2000 ± 0 CFU
same,Colony forming units after the incubation time specified,"[1]; 500 ppm in the formulation, 60 minutes",709 ± 451 CFU
same,Colony forming units after the incubation time specified,"[1]; 1000 ppm in the formulation, 5 minutes",2000 ± 0 CFU
same,Colony forming units after the incubation time specified,"[1]; 1000 ppm in the formulation, 10 minutes",2000 ± 0 CFU
same,Colony forming units after the incubation time specified,"[1]; 1000 ppm in the formulation, 20 minutes",1619 ± 534 CFU
same,Colony forming units after the incubation time specified,"[1]; 1000 ppm in the formulation, 60 minutes",332 ± 236 CFU
same,Colony forming units after the incubation time specified,"[1]; 2000 ppm in the formulation, 5 minutes",2000 ± 0 CFU
same,Colony forming units after the incubation time specified,"[1]; 2000 ppm in the formulation, 10 minutes",2000 ± 0 CFU
same,Colony forming units after the incubation time specified,"[1]; 2000 ppm in the formulation, 20 minutes",733 ± 349 CFU
same,Colony forming units after the incubation time specified,"[1]; 2000 ppm in the formulation, 60 minutes",93 ± 127 CFU
same,Colony forming units after the incubation time specified,"[1]; 5000 ppm in the formulation, 5 minutes",2000 ± 0 CFU
same,Colony forming units after the incubation time specified,"[1]; 5000 ppm in the formulation, 10 minutes",1225 ± 339 CFU
same,Colony forming units after the incubation time specified,"[1]; 5000 ppm in the formulation, 20 minutes",411 ± 516 CFU
same,Colony forming units after the incubation time specified,"[1]; 5000 ppm in the formulation, 60 minutes",29 ± 36 CFU
same,Colony forming units after the incubation time specified,"[2]; 0.1%, 5 minutes",205 ± 192 CFU
same,Colony forming units after the incubation time specified,"[2]; 0.1%, 20 minutes",48 ± 56 CFU
same,Colony forming units after the incubation time specified,"[2]; 0.1%, 24 hours",0 CFU
same,Colony forming units after the incubation time specified,"[2]; 0.2%, 5 minutes",56 ± 52 CFU
same,Colony forming units after the incubation time specified,"[2]; 0.2%, 20 minutes",5 ± 4 CFU
same,Colony forming units after the incubation time specified,"[2]; 0.2%, 24 hours",0 CFU
same,Colony forming units after the incubation time specified,"[2]; 0.3%, 5 minutes",18 ± 19 CFU
same,Colony forming units after the incubation time specified,"[2]; 0.3%, 20 minutes",1 ± 0 CFU
same,Colony forming units after the incubation time specified,"[2]; 0.3%, 24 hours",0 CFU
